Source: ChEMBL document CHEMBL5634112, “Synthesis and biological evaluation of fluoroquinolones containing a pyridoxine derivatives moiety” (Eur J Med Chem, 2023)
Converted amounts (≈) assume the structure as drawn.

Key:
[1] = system: Staphylococcus epidermidis; experiment: Antibacterial activity against clinical isolate Staphylococcus epidermidis NKC 37/1 assessed as reduction in microbial growth incubated for 24 hrs by broth microdilution method; type: functional
[2] = system: Escherichia coli; experiment: Antibacterial activity against clinical isolate Escherichia coli NKC 1 assessed as reduction in microbial growth incubated for 24 hrs by broth microdilution method; type: functional
[3] = system: Bacillus subtilis; experiment: Antibacterial activity against Bacillus subtilis 168 assessed as reduction in microbial growth incubated for 24 hrs by broth microdilution method; type: functional
[4] = system: Staphylococcus auricularis; experiment: Antibacterial activity against clinical isolate Staphylococcus auricularis NKC 7 assessed as reduction in microbial growth incubated for 24 hrs by broth microdilution method; type: functional
[5] = Cytotoxicity against human HSF assessed as reduction in cell viability incubated for 72 hrs by MTT assay; type: toxicity, cell-based; conditions: HSF cells
[6] = system: Staphylococcus epidermidis; experiment: Antibacterial activity against clinical isolate Staphylococcus epidermidis assessed as reduction in microbial growth incubated for 24 hrs by broth microdilution method; type: functional
[7] = system: Pseudomonas aeruginosa; experiment: Antibacterial activity against Pseudomonas aeruginosa ATCC 27853 assessed as reduction in microbial growth incubated for 24 hrs by broth microdilution method; type: functional
[8] = system: Escherichia coli; experiment: Antibacterial activity against Escherichia coli ATCC 25922 assessed as reduction in microbial growth incubated for 24 hrs by broth microdilution method; type: functional
[9] = system: Klebsiella pneumoniae; experiment: Antibacterial activity against clinical isolate Klebsiella pneumoniae 1678 assessed as reduction in microbial growth incubated for 24 hrs by broth microdilution method; type: functional
[10] = system: Micrococcus luteus; experiment: Antibacterial activity against clinical isolate Micrococcus luteus assessed as reduction in microbial growth incubated for 24 hrs by broth microdilution method; type: functional
[11] = system: Klebsiella aerogenes; experiment: Antibacterial activity against clinical isolate Enterobacter aerogenes NKC 8 assessed as reduction in microbial growth incubated for 24 hrs by broth microdilution method; type: functional
[12] = system: Pseudomonas aeruginosa; experiment: Antibacterial activity against clinical isolate Pseudomonas aeruginosa NKC 17 assessed as reduction in microbial growth incubated for 24 hrs by broth microdilution method; type: functional
[13] = system: Staphylococcus aureus; experiment: Antibacterial activity against clinical isolate Staphylococcus aureus 1812 assessed as reduction in microbial growth incubated for 24 hrs by broth microdilution method; type: functional
[14] = system: Staphylococcus aureus; experiment: Antibacterial activity against clinical isolate Staphylococcus aureus 4721 assessed as reduction in microbial growth incubated for 24 hrs by broth microdilution method; type: functional
[15] = Cytotoxicity against human CHL assessed as reduction in cell viability incubated for 72 hrs by MTT assay; type: toxicity, cell-based; conditions: CHL cells
[16] = system: Staphylococcus haemolyticus; experiment: Antibacterial activity against clinical isolate Staphylococcus haemolyticus 1464 assessed as reduction in microbial growth incubated for 24 hrs by broth microdilution method; type: functional
[17] = system: Enterococcus faecalis; experiment: Antibacterial activity against clinical isolate Enterococcus faecalis 1465 assessed as reduction in microbial growth incubated for 24 hrs by broth microdilution method; type: functional
[18] = system: Staphylococcus aureus; experiment: Antibacterial activity against methicillin sensitive Staphylococcus aureus ATCC 29213 assessed as reduction in microbial growth incubated for 24 hrs by broth microdilution method; type: functional
[19] = system: Cedecea davisae; experiment: Antibacterial activity against clinical isolate Cedecea davisae 1813 assessed as reduction in microbial growth incubated for 24 hrs by broth microdilution method; type: functional
[20] = Cytotoxicity against human MSC assessed as reduction in cell viability incubated for 72 hrs by MTT assay; type: toxicity, cell-based; conditions: MSC cells
[21] = system: Staphylococcus haemolyticus; experiment: Antibacterial activity against clinical isolate Staphylococcus haemolyticus NKC 31/2 assessed as reduction in microbial growth incubated for 24 hrs by broth microdilution method; type: functional
[22] = system: Staphylococcus aureus; experiment: Antibacterial activity against clinical isolate methicillin resistant Staphylococcus aureus 4771 assessed as reduction in microbial growth incubated for 24 hrs by broth microdilution method; type: functional
[23] = system: Salmonella typhimurium; experiment: Antibacterial activity against Salmonella typhimurium TA100 assessed as reduction in microbial growth incubated for 24 hrs by broth microdilution method; type: functional, Salmonella enterica subsp. enterica serovar Typhimurium; conditions: Salmonella enterica

| SMILES | MIC [1] | MIC [2] | MIC [3] | MIC [4] | CC50 at 72 h [5] | MIC [6] | MIC [7] | MIC [8] | MIC [9] | MIC [10] | MIC [11] | MIC [12] | MIC [13] | MIC [14] | CC50 at 72 h [15] | MIC [16] | MIC [17] | MIC [18] | MIC [19] | CC50 at 72 h [20] | further results |
| --- | --- | --- | --- | --- | --- | --- | --- | --- | --- | --- | --- | --- | --- | --- | --- | --- | --- | --- | --- | --- | --- |
| CCn1cc(C(=O)O)c(=O)c2cc(F)c(N3CCNCC3)cc21 [NORFLOXACIN] | 4 µg/mL | 0.06 µg/mL | 1 µg/mL | 0.13 µg/mL | 38.1 µg/mL (≈ 119 µM) | 1 µg/mL | 4 µg/mL | 1 µg/mL | 1 µg/mL | 8 µg/mL | 1 µg/mL | 0.25 µg/mL | 2 µg/mL | 1 µg/mL | 38.1 µg/mL (≈ 119 µM) | 2 µg/mL | > 64 µg/mL | 2 µg/mL | 1 µg/mL | 29.3 µg/mL (≈ 91.9 µM) | MIC [21]: 8 µg/mL; MIC [22]: 1 µg/mL; MIC [23]: 1 µg/mL |
| COc1c(N2C[C@@H]3CCCN(Cc4c(CO)nc(C)c(O)c4CO)[C@@H]3C2)c(F)cc2c(=O)c(C(=O)O)cn(C3CC3)c12.Cl | 0.25 µg/mL | 4 µg/mL | 2 µg/mL | 0.06 µg/mL | 35.2 µg/mL | 2 µg/mL | > 64 µg/mL | 2 µg/mL | 64 µg/mL | 2 µg/mL | 8 µg/mL | 32 µg/mL | 0.5 µg/mL | 0.25 µg/mL | 17.6 µg/mL | 0.25 µg/mL | 4 µg/mL | 2 µg/mL | 0.5 µg/mL | 20.6 µg/mL | MIC [21]: 8 µg/mL; MIC [22]: 8 µg/mL; MIC [23]: 2 µg/mL |
| COc1c(N2C[C@@H]3CCCN(Cc4nc(C)c(O)c(CO)c4CO)[C@@H]3C2)c(F)cc2c(=O)c(C(=O)O)cn(C3CC3)c12.Cl | 0.25 µg/mL | 2 µg/mL | 2 µg/mL | 0.03 µg/mL | 33.9 µg/mL | 2 µg/mL | > 64 µg/mL | > 64 µg/mL | 64 µg/mL | 2 µg/mL | 4 µg/mL | 32 µg/mL | 0.5 µg/mL | 0.5 µg/mL | 24.2 µg/mL | 0.5 µg/mL | 4 µg/mL | 2 µg/mL | 0.25 µg/mL | 31.7 µg/mL | MIC [21]: 8 µg/mL; MIC [22]: 0.25 µg/mL; MIC [23]: 2 µg/mL |
| CCCC1OCc2c(CN3CCC[C@H]4CN(c5c(F)cc6c(=O)c(C(=O)O)cn(C7CC7)c6c5OC)C[C@H]43)cnc(C)c2O1 (stereo partly specified) | 4 µg/mL | 4 µg/mL | 2 µg/mL | 0.13 µg/mL | 2.34 µg/mL (≈ 3.86 µM) | 2 µg/mL | > 64 µg/mL | > 64 µg/mL | > 64 µg/mL | 2 µg/mL | 64 µg/mL | > 64 µg/mL | 4 µg/mL | 2 µg/mL | 2.46 µg/mL (≈ 4.05 µM) | 2 µg/mL | 64 µg/mL | 2 µg/mL | 2 µg/mL | 2.91 µg/mL (≈ 4.8 µM) | MIC [21]: 64 µg/mL; MIC [22]: 4 µg/mL; MIC [23]: 4 µg/mL |
| COc1c(N2C[C@@H]3CCCN(Cc4cnc(C)c(O)c4CO)[C@@H]3C2)c(F)cc2c(=O)c(C(=O)O)cn(C3CC3)c12.Cl | 0.06 µg/mL | 4 µg/mL | 2 µg/mL | 0.03 µg/mL | 56.7 µg/mL | 2 µg/mL | > 64 µg/mL | > 64 µg/mL | > 64 µg/mL | 4 µg/mL | 8 µg/mL | 64 µg/mL | 0.25 µg/mL | 0.13 µg/mL | 18.6 µg/mL | 0.13 µg/mL | 1 µg/mL | 2 µg/mL | 0.13 µg/mL | 48.4 µg/mL | MIC [21]: 8 µg/mL; MIC [22]: 0.13 µg/mL; MIC [23]: 4 µg/mL |
| Cc1nc(CO)c(CN2CCN(c3cc4c(cc3F)c(=O)c(C(=O)O)cn4C3CC3)CC2)c(CO)c1O.Cl | 1 µg/mL | 0.5 µg/mL | 4 µg/mL | 0.25 µg/mL | 38 µg/mL | 8 µg/mL | > 64 µg/mL | 64 µg/mL | 8 µg/mL | 2 µg/mL | 2 µg/mL | 16 µg/mL | 4 µg/mL | 2 µg/mL | 31.8 µg/mL | 4 µg/mL | 32 µg/mL | 0.5 µg/mL | 1 µg/mL | 52.6 µg/mL | MIC [21]: 16 µg/mL; MIC [22]: 2 µg/mL; MIC [23]: 4 µg/mL |
| CCn1cc(C(=O)O)c(=O)c2cc(F)c(N3CCN(Cc4cnc(C)c(O)c4CO)C(C)C3)c(F)c21.Cl (stereo unspecified) | 1 µg/mL | 2 µg/mL | 0.5 µg/mL | 0.13 µg/mL | 22.3 µg/mL | 1 µg/mL | 4 µg/mL | 8 µg/mL | > 64 µg/mL | 0.5 µg/mL | 8 µg/mL | > 64 µg/mL | 1 µg/mL | 1 µg/mL | 7.85 µg/mL | 1 µg/mL | 8 µg/mL | 2 µg/mL | 2 µg/mL | 13.1 µg/mL | MIC [21]: 16 µg/mL; MIC [22]: 1 µg/mL; MIC [23]: 2 µg/mL |
| CCn1cc(C(=O)O)c(=O)c2cc(F)c(N3CCNC(C)C3)c(F)c21 (stereo unspecified) [LOMEFLOXACIN] | 2 µg/mL | 0.06 µg/mL | 0.5 µg/mL | 0.06 µg/mL | 46.2 µg/mL (≈ 131 µM) | 2 µg/mL | 4 µg/mL | 1 µg/mL | 1 µg/mL | 1 µg/mL | 1 µg/mL | 1 µg/mL | 2 µg/mL | 1 µg/mL | 31.3 µg/mL (≈ 89.1 µM) | 0.5 µg/mL | > 64 µg/mL | 0.5 µg/mL | 0.25 µg/mL | 35.7 µg/mL (≈ 102 µM) | MIC [21]: 8 µg/mL; MIC [22]: 1 µg/mL; MIC [23]: 1 µg/mL |
| Cc1ncc(CN2CCN(c3cc4c(cc3F)c(=O)c(C(=O)O)cn4C3CC3)CC2)c(C)c1O.Cl | 0.5 µg/mL | 0.13 µg/mL | 0.5 µg/mL | 0.06 µg/mL | 27.6 µg/mL | 0.5 µg/mL | 32 µg/mL | 1 µg/mL | 16 µg/mL | 0.5 µg/mL | 1 µg/mL | 16 µg/mL | 1 µg/mL | 0.5 µg/mL | 14.2 µg/mL | 0.5 µg/mL | 16 µg/mL | 0.5 µg/mL | 0.5 µg/mL | 25.1 µg/mL | MIC [21]: 16 µg/mL; MIC [22]: 0.5 µg/mL; MIC [23]: 1 µg/mL |
| COc1c(N2C[C@@H]3CCCN(Cc4cnc(C)c5c4COCO5)[C@@H]3C2)c(F)cc2c(=O)c(C(=O)O)cn(C3CC3)c12.Cl | 0.03 µg/mL | 4 µg/mL | 2 µg/mL | 0.03 µg/mL | 5.8 µg/mL | 16 µg/mL | 64 µg/mL | 2 µg/mL | > 64 µg/mL | 8 µg/mL | > 64 µg/mL | > 64 µg/mL | 0.06 µg/mL | 0.03 µg/mL | 2.34 µg/mL | 0.03 µg/mL | 1 µg/mL | 2 µg/mL | 0.03 µg/mL | 9.62 µg/mL | MIC [21]: 1 µg/mL; MIC [22]: 0.03 µg/mL; MIC [23]: 2 µg/mL |
| COc1c(N2C[C@@H]3CCCN(Cc4nc(C)c5c(c4CO)COC(C)(C)O5)[C@@H]3C2)c(F)cc2c(=O)c(C(=O)O)cn(C3CC3)c12 | 2 µg/mL | 8 µg/mL | 2 µg/mL | 0.03 µg/mL | 11.3 µg/mL (≈ 18.1 µM) | 4 µg/mL | > 64 µg/mL | > 64 µg/mL | 64 µg/mL | 2 µg/mL | 16 µg/mL | > 64 µg/mL | 2 µg/mL | 1 µg/mL | 6.41 µg/mL (≈ 10.3 µM) | 1 µg/mL | 16 µg/mL | 2 µg/mL | 0.5 µg/mL | 7.26 µg/mL (≈ 11.7 µM) | MIC [21]: 32 µg/mL; MIC [22]: 1 µg/mL; MIC [23]: 2 µg/mL |
| CCn1cc(C(=O)O)c(=O)c2cc(F)c(N3CCN(Cc4nc(C)c5c(c4CO)COC(C)(C)O5)CC3)cc21 | 4 µg/mL | 16 µg/mL | 2 µg/mL | 0.25 µg/mL | 24.9 µg/mL (≈ 46 µM) | 8 µg/mL | > 64 µg/mL | > 64 µg/mL | > 64 µg/mL | 4 µg/mL | 32 µg/mL | 64 µg/mL | 8 µg/mL | 4 µg/mL | 7.05 µg/mL (≈ 13 µM) | 4 µg/mL | > 64 µg/mL | 2 µg/mL | 2 µg/mL | 16.2 µg/mL (≈ 30 µM) | MIC [21]: 32 µg/mL; MIC [22]: 4 µg/mL; MIC [23]: 2 µg/mL |
